This note sets out measurements from ChEMBL document CHEMBL5518230, “Identification of a Novel Selective CDK9 Inhibitor for the Treatment of CRC: Design, Synthesis, and Biological Activity Evaluation” (J Med Chem, 2024).

Molecules are shown by their SMILES. Active and inactive are the calls of the source. No cut-off for these calls is given here.

A short description of data set [1]: Toxicity in BALB/c mouse xenografted with human HCT-116 cells assessed as lung morphological change at 50 mg/kg,po administrated once daily for 3 weeks by hematoxylin and eosin staining based microscopic analysis. It counts as organism-based. The note with it: in vivo, 504 h. (In xenograft studies the graft and the host belong to different species.)
The test system of data set [2] is HCT-116. In words: Growth inhibition of human HCT-116 cells incubated for 48 hrs by CCK-8 assay. The class given is functional. On the technique in general: Tetrazolium dyes change colour on reduction, which living cells bring about.
Data set [3] concerns the target Cyclin-dependent kinase 9 (Homo sapiens, UniProt P50750). In words: Inhibition of CDK9 (unknown origin).
Data set [4] deals with Cyclin-dependent kinase 6 (Homo sapiens, UniProt Q00534). Briefly: Inhibition of CDK6 (unknown origin).
The nature of data set [5]: Half life in Sprague-Dawley rat at 2 mg/kg,iv administration measured for 0.25 to 24 hrs by LC-MS/MS analysis. The class given is ADME, organism-based. The note with it: in vivo, time 0.25-24 hrs.
In data set [6] the test system is SW480. In words: Growth inhibition of human SW480 cells incubated for 48 hrs by CCK-8 assay. The class given is functional.
Data set [7] concerns the target Serine/threonine-protein kinase PLK2 (Homo sapiens) (UniProt Q9NYY3). Briefly: Inhibition of human PLK2 at 100 nM by kinase profiling assay relative to control.
For data set [8], the target named is Cyclin-dependent kinase 1 (Homo sapiens, UniProt P06493). In words: Inhibition of CDK1 (unknown origin).
In data set [9] the target is Glycogen synthase kinase-3 beta (Homo sapiens) (UniProt P49841). Briefly: Inhibition of human GSK3beta at 100 nM by kinase profiling assay relative to control.
Data set [10] in a line: Tmax in Sprague-Dawley rat at 2 mg/kg,iv administration measured for 0.25 to 24 hrs by LC-MS/MS analysis. The class given is ADME, organism-based. The following applies: in vivo, time 0.25-24 hrs.
Data set [11] deals with Aurora kinase B (Homo sapiens) (UniProt Q96GD4). In words: Inhibition of human AurB at 100 nM by kinase profiling assay relative to control.
Data set [12] relates to HCT-116. Briefly: Induction of apoptosis in human HCT-116 cells assessed as increase in caspase-3 activity incubated for 48 hrs by GreenNuc substrate based flow cytometric analysis. The class given is functional, cell-based. In general terms: Flow cytometry measures light scatter and fluorescence of single cells or particles in a stream.
The test system of data set [13] is HCT-116. In words: Antitumor activity against human HCT-116 cells xenografted in BALB/c mouse assessed as downregulation of Mcl-1 expression at 50 mg/kg,po administrated once daily for 3 weeks by Western blotting analysis. The class given is functional, organism-based.
The nature of data set [14]: AUC (0 to infinity) in Sprague-Dawley rat at 2 mg/kg,iv administration measured for 0.25 to 24 hrs by LC-MS/MS analysis. It counts as ADME, organism-based. The following applies: in vivo, time 0.25-24 hrs.
Data set [15] in a line: Half life in human plasma measured upto 120 mins by LC-MS/MS analysis. The class given is ADME, cell-free.
Data set [16] has as its target Cyclin-dependent kinase 2 (Homo sapiens, UniProt P24941). Briefly: Inhibition of CDK2 (unknown origin).
In data set [17] the target is TGF-beta receptor type-2 (Homo sapiens) (UniProt P37173). Briefly: Inhibition of human TGFbetaR2 at 100 nM by kinase profiling assay relative to control.
Data set [18] can be described thus: Selectivity index, ratio of GI50 for growth inhibition of human SW480 cells to GI50 for growth inhibition of human HCT-116 cells. It counts as functional.
The target in data set [19] is Cyclin-dependent kinase 4 (Homo sapiens, UniProt P11802). In words: Inhibition of CDK4 (unknown origin).
Data set [20] deals with HCT-116. In words: Induction of apoptosis in human HCT-116 cells assessed as downregulation of cleaved caspase-3 expression at 25 to 400 nM incubated for 48 hrs by Western blotting analysis. It counts as functional, cell-based. The note with it: dose 25-400 nM.
The nature of data set [21]: Cmax in Sprague-Dawley rat at 10 mg/kg,po administration measured for 0.25 to 24 hrs by LC-MS/MS analysis. The class given is ADME, organism-based. The note with it: in vivo, time 0.25-24 hrs.
Data set [22] can be described thus: Toxicity in BALB/c mouse xenografted with human HCT-116 cells assessed as body weight loss at 25 mg/kg,po administrated once daily for 3 weeks. The class given is organism-based. The note with it: in vivo, 504 h.
Data set [23] can be described thus: Toxicity in BALB/c mouse xenografted with human HCT-116 cells assessed as heart morphological change at 25 mg/kg,po administrated once daily for 3 weeks by hematoxylin and eosin staining based microscopic analysis. It counts as organism-based. The note with it: in vivo, 504 h.
The nature of data set [24]: Cmax in Sprague-Dawley rat at 2 mg/kg,iv administration measured for 0.25 to 24 hrs by LC-MS/MS analysis. It counts as ADME, organism-based. The note with it: in vivo, time 0.25-24 hrs.

Sequence of Cyclin-dependent kinase 9 (P50750 whole entry): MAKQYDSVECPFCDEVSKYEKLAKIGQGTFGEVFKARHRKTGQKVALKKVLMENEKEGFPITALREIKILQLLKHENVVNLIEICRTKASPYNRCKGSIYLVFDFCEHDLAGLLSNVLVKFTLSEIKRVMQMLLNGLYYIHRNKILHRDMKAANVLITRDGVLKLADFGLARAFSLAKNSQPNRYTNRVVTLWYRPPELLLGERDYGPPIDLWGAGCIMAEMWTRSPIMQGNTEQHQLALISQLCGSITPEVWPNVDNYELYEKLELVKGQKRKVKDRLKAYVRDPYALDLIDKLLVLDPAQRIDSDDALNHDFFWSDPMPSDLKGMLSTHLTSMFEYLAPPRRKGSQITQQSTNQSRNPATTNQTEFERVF
Sequence of Cyclin-dependent kinase 4 (P11802 whole entry): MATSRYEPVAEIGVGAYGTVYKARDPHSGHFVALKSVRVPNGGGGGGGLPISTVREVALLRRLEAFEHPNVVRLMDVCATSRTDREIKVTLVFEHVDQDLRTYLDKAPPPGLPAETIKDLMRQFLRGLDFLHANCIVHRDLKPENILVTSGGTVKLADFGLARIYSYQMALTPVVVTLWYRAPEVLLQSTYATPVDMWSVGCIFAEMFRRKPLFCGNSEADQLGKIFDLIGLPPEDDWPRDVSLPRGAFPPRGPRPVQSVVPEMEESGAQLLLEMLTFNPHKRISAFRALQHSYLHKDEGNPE
Sequence of Glycogen synthase kinase-3 beta (Homo sapiens) (P49841 whole entry, looked up): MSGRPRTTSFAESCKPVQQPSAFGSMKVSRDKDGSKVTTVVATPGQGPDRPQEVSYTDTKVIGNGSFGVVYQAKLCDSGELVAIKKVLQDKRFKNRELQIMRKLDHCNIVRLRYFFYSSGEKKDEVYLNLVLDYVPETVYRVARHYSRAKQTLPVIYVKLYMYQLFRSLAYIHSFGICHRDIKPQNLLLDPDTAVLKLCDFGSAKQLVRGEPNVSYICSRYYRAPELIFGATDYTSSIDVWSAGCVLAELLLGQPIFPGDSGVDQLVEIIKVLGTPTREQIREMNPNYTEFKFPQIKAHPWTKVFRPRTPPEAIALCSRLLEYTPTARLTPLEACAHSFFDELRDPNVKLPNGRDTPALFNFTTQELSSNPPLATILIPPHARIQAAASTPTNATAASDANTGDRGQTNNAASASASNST
Sequence of Aurora kinase B (Homo sapiens) (Q96GD4 whole entry): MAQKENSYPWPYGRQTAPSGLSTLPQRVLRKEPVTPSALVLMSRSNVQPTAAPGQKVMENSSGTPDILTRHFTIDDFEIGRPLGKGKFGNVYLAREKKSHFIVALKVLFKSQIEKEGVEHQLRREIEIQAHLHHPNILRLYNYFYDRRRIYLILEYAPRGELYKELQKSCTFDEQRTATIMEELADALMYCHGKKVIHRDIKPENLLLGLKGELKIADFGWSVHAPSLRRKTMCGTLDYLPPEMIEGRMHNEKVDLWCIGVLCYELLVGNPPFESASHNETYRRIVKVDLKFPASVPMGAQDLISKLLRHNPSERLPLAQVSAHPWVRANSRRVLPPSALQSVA
Sequence of Cyclin-dependent kinase 1 (P06493 whole entry): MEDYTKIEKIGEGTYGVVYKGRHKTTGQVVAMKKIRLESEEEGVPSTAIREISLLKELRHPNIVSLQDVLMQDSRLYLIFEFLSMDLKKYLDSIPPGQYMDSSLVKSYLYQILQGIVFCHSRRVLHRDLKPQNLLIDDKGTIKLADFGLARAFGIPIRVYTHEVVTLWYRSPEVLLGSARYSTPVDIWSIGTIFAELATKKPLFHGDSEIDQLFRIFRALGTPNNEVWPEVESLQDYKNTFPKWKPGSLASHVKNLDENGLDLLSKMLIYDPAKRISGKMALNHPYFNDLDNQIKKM
Sequence of TGF-beta receptor type-2 (Homo sapiens) (P37173 whole entry): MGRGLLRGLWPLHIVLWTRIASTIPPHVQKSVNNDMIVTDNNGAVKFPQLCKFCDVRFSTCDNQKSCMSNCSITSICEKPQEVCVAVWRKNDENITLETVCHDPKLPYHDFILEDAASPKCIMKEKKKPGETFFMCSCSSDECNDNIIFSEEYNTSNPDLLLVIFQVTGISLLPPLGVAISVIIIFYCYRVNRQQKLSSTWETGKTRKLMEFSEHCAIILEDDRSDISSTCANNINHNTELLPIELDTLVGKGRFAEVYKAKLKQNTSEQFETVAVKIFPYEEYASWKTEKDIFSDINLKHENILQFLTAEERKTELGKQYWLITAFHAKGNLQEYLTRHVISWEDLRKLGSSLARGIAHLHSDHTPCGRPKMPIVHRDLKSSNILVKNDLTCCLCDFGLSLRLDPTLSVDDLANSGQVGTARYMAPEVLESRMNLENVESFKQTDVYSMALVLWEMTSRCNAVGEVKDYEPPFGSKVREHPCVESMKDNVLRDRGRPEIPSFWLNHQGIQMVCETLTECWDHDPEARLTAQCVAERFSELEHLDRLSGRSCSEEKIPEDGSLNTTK
Sequence of Serine/threonine-protein kinase PLK2 (Homo sapiens) (Q9NYY3 whole entry, looked up): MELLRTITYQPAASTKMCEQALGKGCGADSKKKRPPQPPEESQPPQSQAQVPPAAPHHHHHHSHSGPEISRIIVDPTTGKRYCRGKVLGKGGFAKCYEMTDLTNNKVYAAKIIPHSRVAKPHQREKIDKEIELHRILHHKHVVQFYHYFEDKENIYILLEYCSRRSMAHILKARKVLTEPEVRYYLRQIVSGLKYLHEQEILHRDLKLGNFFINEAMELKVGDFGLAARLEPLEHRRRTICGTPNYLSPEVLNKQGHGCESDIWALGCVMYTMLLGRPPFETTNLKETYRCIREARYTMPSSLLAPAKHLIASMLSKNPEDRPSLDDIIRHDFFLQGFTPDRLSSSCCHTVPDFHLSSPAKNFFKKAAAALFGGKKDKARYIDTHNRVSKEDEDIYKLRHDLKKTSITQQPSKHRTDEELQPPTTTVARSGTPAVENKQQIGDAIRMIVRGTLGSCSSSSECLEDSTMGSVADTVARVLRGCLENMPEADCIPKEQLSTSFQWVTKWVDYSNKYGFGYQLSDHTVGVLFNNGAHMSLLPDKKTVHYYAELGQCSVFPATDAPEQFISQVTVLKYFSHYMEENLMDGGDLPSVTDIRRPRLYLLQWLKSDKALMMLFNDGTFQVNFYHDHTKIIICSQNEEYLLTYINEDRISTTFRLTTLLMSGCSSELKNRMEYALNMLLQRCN
Sequence of Cyclin-dependent kinase 6 (Q00534 whole entry): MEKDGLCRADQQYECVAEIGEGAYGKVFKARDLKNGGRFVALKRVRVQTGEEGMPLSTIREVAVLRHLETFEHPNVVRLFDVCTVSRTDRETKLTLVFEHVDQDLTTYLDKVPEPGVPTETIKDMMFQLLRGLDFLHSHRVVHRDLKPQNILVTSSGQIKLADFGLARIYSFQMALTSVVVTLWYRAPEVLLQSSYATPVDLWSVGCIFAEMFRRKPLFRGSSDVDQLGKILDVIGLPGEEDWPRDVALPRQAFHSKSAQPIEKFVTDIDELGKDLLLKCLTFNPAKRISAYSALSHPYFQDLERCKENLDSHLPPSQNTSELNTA

As to `CC(C)n1nnc2ccc(-c3ccnc(Nc4cc(C(=O)N5CCCN(C)CC5)ccn4)c3)cc21`, the Activity result in data set [1] was “Non-Toxic”; in data set [12], “Dose-Dependent Effect”; in data set [22] it was “Non-Toxic”; in data set [23] it was “Non-Toxic”. The figures for the GI50 in [2] and in [6] were 50 nM and 5090 nM, respectively. Moreover, the IC50 is 2.9 nM in data set [3]; 209 nM in [4]; 439 nM in [8]; above 500 nM in data set [16]; above 500 nM in data set [19]. The half-life is 1.7 h in data set [5] and above 4.82 h in data set [15]. The inhibition in [7], in data set [9], in data set [11] and in [17] was below 50% throughout. The Tmax in data set [10] is 4.98 min. Further, the result in [13] and in data set [20] was Active. In addition, in data set [14], the AUC(0-inf) came to 373 ng·h/mL. Moreover, in [18], the RatioGI50 is given as 92.97. Moreover, the peak concentration (Cmax) amounted to 39 ng/mL in data set [21] and 358 ng/mL in data set [24].

Usually GI50 stands for the concentration that inhibits growth by half. Lower therefore signals greater sensitivity of the cells. In general, IC50 refers to the concentration needed to halve the response being measured. Low values mean greater potency in that assay, high ones weaker potency in that assay. In general, half-life refers to the time in which the quantity being followed falls by half. By inhibition is commonly meant the drop in the measured response relative to a control, in per cent. A higher inhibition goes with a response far below the control. As a reminder, the Tmax is the time from dosing to the highest level. A word on the AUC(0-inf): it is the area under the concentration-time curve extrapolated to infinity. Lower therefore signals less exposure. The term Cmax denotes the highest concentration seen after dosing.
